Source: US11878063B2, “Engineered ligands and uses thereof” (Children's Medical Center Corporation, priority 2019, dated 2024)
Square brackets hold non-standard residues; d marks the D form. Ends that are not written are not given here. Peptide text beside a SMILES is read from it. hArg = N=C(N)NCCCC[C@H](N)C(=O)O; Aib = CC(C)(N)C(=O)O

How the values were obtained:
Mice (CD1 female) = experiment: Calcemic response: blood ionized calcium in mice after subcutaneous injection; format: in vivo, mouse; details: 35 nmol/kg subcutaneous, n=4
Description: Animal experiments and measurement of in vivo response. Mice (CD1 female, age 11 weeks) were treated in accordance with the ethical guidelines adopted by Massachusetts General Hospital. […] Peptides and conjugates were administered at doses that allowed for differentiation between compounds with differing levels of in vivo activity^27. Statistical analyses were performed assuming Gaussian distribution of data. Mice (n=4 per compound) were injected subcutaneously with vehicle (10 mM citric acid/150 mM NaCl/0.05% Tween-80, pH 5.0) or vehicle containing PTH or conjugate at a dose of 35 nmol/kg body weight. […] Blood was withdrawn just before injection (t=0) or at times thereafter. Tail vein blood was collected and immediately analyzed. Blood Ca^2+ concentration was measured with a Siemens RapidLab 348 Ca2+/pH analyzer.

human PTHR1 = molecular target: T1, human PTHR1 (Homo sapiens, UniProt Q03431); experiment: cAMP induction (cAMP-responsive luciferase) in HEK293 cells stably expressing human PTHR1; format: cell-based
T1 construct: expressed in transfected cells
T1 sequence (Q03431 27-593): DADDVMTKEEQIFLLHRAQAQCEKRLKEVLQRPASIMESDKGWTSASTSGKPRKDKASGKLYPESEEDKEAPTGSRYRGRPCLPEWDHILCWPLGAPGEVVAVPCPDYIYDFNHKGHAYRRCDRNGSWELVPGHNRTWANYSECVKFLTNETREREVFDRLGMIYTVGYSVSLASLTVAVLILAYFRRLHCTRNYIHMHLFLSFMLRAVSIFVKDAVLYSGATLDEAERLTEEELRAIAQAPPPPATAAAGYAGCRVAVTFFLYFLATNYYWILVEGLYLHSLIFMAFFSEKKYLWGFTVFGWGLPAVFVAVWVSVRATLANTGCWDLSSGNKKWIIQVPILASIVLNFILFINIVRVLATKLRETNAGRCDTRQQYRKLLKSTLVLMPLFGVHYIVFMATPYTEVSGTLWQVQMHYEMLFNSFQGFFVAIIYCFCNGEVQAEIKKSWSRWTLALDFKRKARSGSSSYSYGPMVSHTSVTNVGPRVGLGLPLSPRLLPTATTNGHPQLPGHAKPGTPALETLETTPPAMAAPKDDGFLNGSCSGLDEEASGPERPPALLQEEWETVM
Description: (§1) Measurement of cAMP response. These assays were performed as previously described^27. […] Confluent monolayers of cells were pre-incubated with CO2 independent medium containing D-luciferin (0.5 mM) at 37° C. until a stable baseline level of luminescence was established (20 min). Varying concentrations of ligands were then added, and the time course of luminescence response was recorded using BioTek plate reader.
(§2) Data calculations. Data were processed using Microsoft Excel and GraphPad Prism 6. Data from cAMP dose-response assays were analyzed using a sigmoidal dose-response model with variable slope. Data sets were statistically compared by using Student's t test (two-tailed) assuming unequal variances for the two sets.

PTHR16E = molecular target: T2, PTHR16E (Homo sapiens, UniProt Q03431, A83I/D81R/G76A/K80A/K82Q/P78E/R79L/S71Q/S73D/S75E/T74Q); experiment: cAMP induction in HEK293 cells stably expressing PTHR16E (6E/Ubc6e epitope tag in exon 2 segment); format: cell-based
T2 construct: expressed in transfected cells
T2 sequence (Q03431 27-593 S71Q/S73D/T74Q/S75E/G76A/P78E/R79L/K80A/D81R/K82Q/A83I): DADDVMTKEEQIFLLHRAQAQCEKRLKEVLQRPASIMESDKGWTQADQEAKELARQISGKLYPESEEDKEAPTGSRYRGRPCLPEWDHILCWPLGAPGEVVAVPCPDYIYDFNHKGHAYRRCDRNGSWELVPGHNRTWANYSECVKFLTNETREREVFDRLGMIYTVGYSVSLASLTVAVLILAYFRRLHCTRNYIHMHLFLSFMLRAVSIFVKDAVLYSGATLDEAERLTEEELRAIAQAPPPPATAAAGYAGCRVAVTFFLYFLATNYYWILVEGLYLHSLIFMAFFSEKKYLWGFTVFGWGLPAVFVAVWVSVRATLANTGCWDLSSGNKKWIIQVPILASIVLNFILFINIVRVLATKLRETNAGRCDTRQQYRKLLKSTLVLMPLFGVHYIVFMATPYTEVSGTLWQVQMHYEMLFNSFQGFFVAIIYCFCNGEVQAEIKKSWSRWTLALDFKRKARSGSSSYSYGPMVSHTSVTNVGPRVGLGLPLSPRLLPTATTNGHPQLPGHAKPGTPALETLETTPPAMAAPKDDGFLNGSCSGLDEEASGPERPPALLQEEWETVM
Description: (§3) Measurement of cAMP response. These assays were performed as previously described^27. Briefly, HEK-293-derived cell lines that stably express the Glosensor cAMP reporter (Promega Corp.)^30 and PTHR1, a PTHR1 variant, or PTHR2 were seeded into white sided 96 well plates (50,000 cells/well) and grown to confluency. Confluent monolayers of cells were pre-incubated with CO2 independent medium containing D-luciferin (0.5 mM) at 37° C. until a stable baseline level of luminescence was established (20 min). Varying concentrations of ligands were then added, and the time course of luminescence response was recorded using BioTek plate reader.
as §2
(§4) The portion of PTHR1 encoded by exon 2 is not resolved in structural studies (FIG. 12—Panel d)^13, 14, 17, is not important for ligand binding^18, and in past work has been targeted as a site for receptor modification^18, 19. A construct was generated that encodes a PTHR1 variant in which a 14-residue fragment from exon 2 was replaced with a 14-mer epitope tag from the intracellular protein UBC6e (PTHR16E, FIG. 12—Panel d)^20. A receptor construct in which a pH-sensitive green fluorescent protein variant (GFP) was inserted into the portion of the receptor encoded by exon 2 (PTHR1GFP in FIGS. 17A to 17C)^19. Another version of PTHR1 in which yellow fluorescent protein (YFP) replaces the entire extracellular domain (PTHR1YFPΔECD, FIG. 12—Panel e)^21, was also used.

PTHR1YFPΔECD = experiment: cAMP induction in HEK293 cells stably expressing PTHR1YFPΔECD (YFP replaces extracellular domain); format: cell-based, human
Description: as §3, §2, §4

PTHR1GFP = experiment: cAMP induction in HEK293 cells stably expressing PTHR1GFP; format: cell-based, human
Description: The GFP-PTHR1 fusion was stably expressed in cells that respond to receptor engagement by activation of a cAMP-sensitive version of luciferase. Exposure of these transfectants to PTH(1-11) yielded the expected dose-response curve with half maximal stimulation at ˜200 nM.
as §3, with “reader. The maximal luminescence response (observed 12-16 min after ligand addition) was used to construct dose-response data sets (Table 4, FIGS. 22A to 22E).” for “reader.”
as §2
as §4, with “While there is no structural information for any VHH bound to PTHR1, a mode of interaction was envisioned between the receptor and VHH-PTH conjugates like that depicted in FIG. 12—Panel c. The” for “The”

PTHR2 [1] = molecular target: T3, PTHR2 (Homo sapiens, UniProt P49190); experiment: cAMP induction in HEK293 cells stably expressing human PTHR2; format: cell-based
T3 construct: expressed in transfected cells
T3 sequence (P49190 25-550): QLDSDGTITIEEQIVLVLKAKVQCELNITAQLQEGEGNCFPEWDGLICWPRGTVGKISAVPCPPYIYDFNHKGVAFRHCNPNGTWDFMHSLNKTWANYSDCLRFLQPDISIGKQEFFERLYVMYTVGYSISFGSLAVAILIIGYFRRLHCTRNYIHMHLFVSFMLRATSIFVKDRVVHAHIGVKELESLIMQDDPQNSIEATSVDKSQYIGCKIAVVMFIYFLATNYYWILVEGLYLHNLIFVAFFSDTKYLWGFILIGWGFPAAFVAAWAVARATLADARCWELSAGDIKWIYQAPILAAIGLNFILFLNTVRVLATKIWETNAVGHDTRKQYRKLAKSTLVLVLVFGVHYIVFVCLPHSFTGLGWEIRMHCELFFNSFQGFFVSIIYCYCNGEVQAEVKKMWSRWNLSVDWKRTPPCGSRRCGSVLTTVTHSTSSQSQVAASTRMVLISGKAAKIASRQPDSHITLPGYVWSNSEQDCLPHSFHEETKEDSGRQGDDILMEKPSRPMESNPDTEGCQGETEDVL
Description: as §1, §2

PTHR2 [2] = molecular target: T3, PTHR2; experiment: Flow cytometry staining by VHH-Alexafluor647 of HEK293 cells expressing PTHR2; format: binding; details: 100 nM VHH
Description: Flow cytometry. Suspensions of cells in PBS were stained for 1 hour on ice in the presence of indicated concentrations of VHH probes functionalized with Alexafluor647. Cells were pelleted by centrifugation and washed with PBS prior to analysis by flow cytometry (BD Accuri C6). Gating was performed on forward scatter/side scatter profiles to analyze intact cells. Data was analyzed using FlowJo version 7.6. The median fluorescent intensity (MFI) of stained cells was used to generate VHH binding dose response curves (FIG. 20).

[3] = maximal cAMP response, normalized
[4] = mean ± SD, Inactive = response <5% of maximal

With “M-PTH(1-14): UVUEIQLMHQXAKW (SEQ ID NO: 90) where U is Aib and X is homoarginine ([Aib]V[Aib]EIQLMHQ[hArg]AKW; not fully specified (C-terminus))” the “blood ionized calcium response” value (Mice (CD1 female)) was “little if any activity”.

For `CC[C@H](C)[C@H](NC(=O)[C@H](CCC(=O)O)NC(=O)C(C)(C)NC(=O)[C@@H](NC(=O)[C@H](C)N)C(C)C)C(=O)N[C@@H](CCC(N)=O)C(=O)N[C@@H](CC(C)C)C(=O)N[C@@H](CCSC)C(=O)N[C@@H](Cc1c[nH]cn1)C(=O)N[C@@H](CCC(N)=O)C(=O)N[C@@H](CCCNC(=N)N)C(=O)N[C@@H](C)C(=O)N[C@@H](CCCCN)C(=O)N[C@@H](Cc1c[nH]c2ccccc12)C(=O)N[C@@H](CS)C(N)=O` [PTH(1-14)] (H-AV[Aib]EIQLMHQRAKWC-NH2), the “activation of wild-type human PTHR1 (in words)” value (human PTHR1) was “activated”, the “Max (normalized ± SD), hPTHR1” value (human PTHR1; [3]) was 1.01 ± 0.07 and the EC50 (human PTHR1; mean ± SD, Inactive = response <5% of maximal response at that concentration, read-out: EC50, cAMP induction, hPTHR1) was 4.3 ± 2 nM. For the same molecule, the “Max (normalized ± SD), hPTHR16E” value (PTHR16E; [3]) was 1.06 ± 0.12, the “Max (normalized ± SD), hPTHR1YFPΔECD” value (PTHR1YFPΔECD; [3]) was 0.96 ± 0.04 and the EC50 (PTHR1YFPΔECD; mean ± SD, Inactive = response <5% of maximal, read-out: EC50, cAMP induction, hPTHR1YFPΔECD) was 1.1 ± 0.9 nM. For the same molecule, the “Max (normalized ± SD), hPTHR1GFP” value (PTHR1GFP; [3]) was 1.09 ± 0.03, the EC50 (PTHR1GFP; mean ± SD, Inactive = response <5% of maximal, read-out: EC50, cAMP induction, hPTHR1GFP) was 2.3 ± 1.2 nM and the “activation of human PTHR2 (in words)” value (PTHR2 [1]) was “activated”. For the same molecule, the “Max (normalized ± SD), hPTHR2” value (PTHR2 [1]; [3]) was 1.14 ± 0.28 and the EC50 (PTHR2 [1]; mean ± SD, read-out: EC50, cAMP induction, hPTHR2) was 924 ± 328 nM.

“modified N-terminal PTH fragment with Aib3, amide; probably AV(Aib)EIQLMH (SEQ ID NO: 86) [PTH(1-9)]” was tested, and the “EC50, cAMP induction, hPTHR1” value (human PTHR1; mean ± SD, Inactive = response <5% of maximal response at that concentration) was “Inactive at 10,000 nM”, the “EC50, cAMP induction, PTHR16E” value (PTHR16E; [4]) was “Inactive at 10,000 nM” and the “activation of PTHR1 with ECD replaced by fluorescent protein (in words)” value (PTHR1YFPΔECD) was “inactive alone”. The “EC50, cAMP induction, hPTHR1YFPΔECD” value (PTHR1YFPΔECD; [4]) was “Inactive at 10,000 nM” and the “EC50, cAMP induction, hPTHR1GFP” value (PTHR1GFP; [4]) was “Inactive at 10,000 nM”.

In the case of TIP 39, the “activation of human PTHR2 (in words)” value (PTHR2 [1]) is reported as “activated”.

B1: VHH05-PTH(1-34): PTH(1-34)-Cys conjugated to nanobody VHH05 (conjugate)
VHH: QVQLQESGGGLVQPGGSLRLSCAASGFVFENSAMAWYRQAPGKERELIAVIGTTFIKLAESVKGRFTISRDNAKSTVYLQMNNLKPEDTAVYYCSKSGAYWGQGTQVTVSS
peptide: SVSEIQLMHNLGKHLNSMERVEWLRKKLQDVHNFC
With B1 the “activation of wild-type human PTHR1 (in words)” value (human PTHR1) was “activates”.

B2: VHH6E: nanobody that recognizes a 14-mer peptide from UBC6e (…), SEQ ID NO: 71 (protein)
VHH: QVQLQESGGGLVQPGGSLRLSCAASGFVFENSAMAWYRQAPGKERELIAVIGTTFIKLAESVKGRFTISRDNAKSTVYLQMNNLKPEDTAVYYCSKSGAYWGQGTQVTVSSLPETGG
For B2, the “binding to PTHR2 (in words)” value (PTHR2 [2]) was “lack of binding”.
